For the assay, the target named is T1, mouse Nurr1 full-length (Mus musculus, UniProt Q06219).
T1 construct: pcDNA3.1 Myc/His mouse Nurr1 full-length construct; expressed in transfected cells; host or cells: SK-N-BE2C
The assay can be described thus: Luciferase reporter gene assay for Nurr1 transcriptional activity in SK-N-BE2C cells. Particulars: relative activity over control (luminescence value; 1.0). In kind it is cell-based. Here is the method: To investigate whether the PG analogs of the present invention activate Nurr1 function, the inventors of the present invention employed an reporter gene assay and examined the transcriptional activation as described in Kim, C.-H. et al., Proceedings of the National Academy of Sciences 112, 8756-8761, doi:10.1073/pnas.1509742112 (2015).
The gene assay was performed by Luciferase assay as described below:
[Protocol for Luciferase Assay to Determine Nurr1 Transcriptional Activity] • 1. SK-N-BE2C cells were maintained in HyClone™ DMEM High Glucose (Cat. No.: SH30022.01) with 10% (v/v) fetal bovine serum (FBS), 100 units/ml penicillin and 100 μg/ml streptomycin. • 2. Seed 1.5×10^5 SK-N-BE2C cells/well into a 24-well plate and incubate at 37° C. with 5% CO2 for 24 hours. • 3. After 24 hours, transfect cells with pcDNA3.1 Myc/His mouse Nurr1 full-length construct, firefly luciferase reporter vector (pGL-3 basic from Promega, Cat. No.:E1751; with appropriate response element cloned in) and Renilla luciferase control vector (pRL-null from Promega, Cat. No.:E2271) in the ratio of 8:1:1 (Nurr1: firefly: renilla) or 400 ng, 50 ng and 50 ng respectively, amounting to a total of 500 ng in the 50 μl transfection mix for 1 well. • 4. To make the transfection mix, first prepare the DNA with P3000 reagent by adding the appropriate amount of DNA with 1 μl P3000 reagent and top up with Opti-MEM® I Reduced-Serum Media (from ThermoFisher Scientific [Cat. No.: 31985070]) to 25 μl. Incubate for 5 minutes at room temperature. • 5. Make another mix consisting of 1 μl Lipofectamine 3000 reagent with 24 μl Opti-MEM® I Reduced-Serum Media per well. Add this Lipofectamine mix to the previous DNA-P3000 mix (after the previous 5 minute incubation) and incubate them for 15 minutes at room temperature. [P3000:Lipofectamine=1:1]. • 6. In the meantime, change the media in the sample wells with fresh DMEM media without antibiotics. • 7. After 15 minutes incubation, add the 50 μl transfection mix into each well and incubate the plate for 24 hours at 37° C. with 5% CO2. • 8. After 24 hours, change the media to normal DMEM media with antibiotics and add various doses of compounds into designated wells and incubate the plate for another 24 hours at 37° C. with 5% CO2. • 9. Following the 24-hour incubation period, luciferase assay can be conducted using Dual-Glo Luciferase® kit from Promega (Cat. No.: E2920). • 10. Lyse each tested wells for 15 minutes with 75 μl of passive lysis buffer provided in the Dual-Luciferase® kit from Promega (Cat. No.: E1910). [Alternatively, add 75 μl of PBS and 75 μl of Dual-Glo® Luciferase Reagent and incubate for 10 minutes at room temperature (cover the plate with foil to protect from light). Transfer the entire sample in each well to a Greiner CELLSTAR® 96-well white polystyrene plate then proceed to step 13]. • 11. After 15 minutes, transfer each lysed sample to a Greiner CELLSTAR® 96-well white polystyrene plate (Cat. No.:655083). • 12. To each well of lysed cells, add 75 μl of Dual-Glo® Luciferase Reagent and incubate for 10 minutes at room temperature (cover the plate with foil to protect from light). • 13. Set the measurement with a 10-second integrated measurement period. • 14. Add 75 μl of Dual-Glo® Stop & Glo® reagent into each well and incubate for 10 minutes before commencing with the same parameters as before to determine the RLU for the Renilla luciferase. • 15. The averaged reading for wells corresponding to non-transfected cells can be subtracted from each RLU reading and duplicate/triplicate readings can then be averaged. Normalization of the luminescence reading for each well can be carried out by dividing the firefly luciferase RLU with the corresponding Renilla luciferase RLU. Each drug-treated well can then be normalized against the averaged DMSO-treated well reading.
Background: A reporter such as luciferase makes a cellular process visible.

T1 sequence (Q06219 whole entry): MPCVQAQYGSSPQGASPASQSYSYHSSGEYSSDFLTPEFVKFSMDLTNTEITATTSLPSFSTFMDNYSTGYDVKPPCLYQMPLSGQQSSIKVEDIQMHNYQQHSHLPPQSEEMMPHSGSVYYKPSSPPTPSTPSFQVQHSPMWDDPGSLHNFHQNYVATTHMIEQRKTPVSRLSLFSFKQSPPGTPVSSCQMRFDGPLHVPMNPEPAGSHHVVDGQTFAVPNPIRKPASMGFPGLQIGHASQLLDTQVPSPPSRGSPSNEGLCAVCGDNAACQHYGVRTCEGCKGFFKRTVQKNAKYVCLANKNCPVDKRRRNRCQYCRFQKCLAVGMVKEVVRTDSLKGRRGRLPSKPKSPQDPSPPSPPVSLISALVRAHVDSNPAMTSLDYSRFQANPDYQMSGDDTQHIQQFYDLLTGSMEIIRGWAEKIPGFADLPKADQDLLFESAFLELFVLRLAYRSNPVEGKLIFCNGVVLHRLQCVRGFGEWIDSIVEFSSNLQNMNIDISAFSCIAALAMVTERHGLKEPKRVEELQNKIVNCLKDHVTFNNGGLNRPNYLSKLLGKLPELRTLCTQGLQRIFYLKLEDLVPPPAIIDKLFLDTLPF

`CCCCC[C@@H](O)/C=C/[C@H]1C(=O)C[C@H](O)[C@@H]1CCCCCCCO` [Compound 56, Prostaglandin D1 Alcohol]: the “Fold activity (1 uM)” value is “C (below 1.0 (low activity))”. As for `CCCCC[C@](C)(O)/C=C/[C@H]1C(=O)C[C@H](O)[C@@H]1C/C=C\CCCC(=O)O` [Compound 57, 15(S)-15-methyl Prostaglandin D2], the “Fold activity (1 uM)” value is on record as “B (1.1~2.0 (moderate))”. In the case of `CCCCC[C@H](O)CC[C@H]1[C@H](O)CC(=O)[C@@H]1CCCCCCC(=O)O` [Compound 58, 13,14-dihydro Prostaglandin E1] it was “A (above 2.0 (high activity))”; in that of `O=C(O)CCCCCC[C@H]1C(=O)C[C@@H](O)[C@@H]1/C=C/[C@@H](O)Cc1ccccc1` [Compound 59, 16-phenyl tetranor Prostaglandin E1], “B (1.1~2.0 (moderate))”. The result for `CCCCC[C@](C)(O)/C=C/[C@H]1[C@H](O)CC(=O)[C@@H]1C/C=C\CCCC(=O)O` [Compound 61, 15(S)-15-methyl Prostaglandin E2] reads “A (above 2.0 (high activity))”. For the molecule `CCCCCCC[C@H](O)/C=C/[C@H]1[C@H](O)CC(=O)[C@@H]1C/C=C\CCCC(=O)O` [Compound 62, 20-ethyl Prostaglandin E2], the “Fold activity (1 uM)” value is given as “A (above 2.0 (high activity))”.

As for `CCCC[C@H](C)C[C@H](O)/C=C/[C@H]1[C@H](O)CC(=O)[C@@H]1CCCCC(CC(=O)O)OC` (stereo partly shown) [Compound 63, 3-methoxy Limaprost], the “Fold activity (1 uM)” value is listed as “B (1.1~2.0 (moderate))”.

For the molecule `CCCCC[C@H](O)/C=C/[C@H]1C(=O)C[C@H](O)[C@@H]1C/C=C\CCCC(=O)O` [Compound 64, Prostaglandin D2], the “Fold activity (1 uM)” value was “B (1.1~2.0 (moderate))”. In the case of `O=C(O)CCC/C=C\CC1C(O)CC(=O)C1/C=C/C(O)CCc1ccccc1` (stereo not shown) [Compound 65, 17-phenyl trinor Prostaglandin D2] it was “C (below 1.0 (low activity))”; in that of `CCCCC[C@@H](O)CC[C@H]1[C@H](O)CC(=O)[C@@H]1CCCCCCC(=O)O` [Compound 66, 13,14-dihydro-15(R)-Prostaglandin E1], “B (1.1~2.0 (moderate))”; in that of `CCCC[C@H](C)C[C@H](O)/C=C/[C@H]1[C@H](O)CC(=O)[C@@H]1CCCC/C=C/C(=O)O` [Compound 67, Limaprost], “A (above 2.0 (high activity))”.

`CCCCC[C@H](O)/C=C/[C@H]1[C@H](O)CC(=O)[C@H]1C/C=C\CCCC(=O)O` [Compound 68, 8-iso Prostaglandin E2]: the “Fold activity (1 uM)” value was “A (above 2.0 (high activity))”.

On to `CCCCC(C)(C)[C@H](O)/C=C/[C@H]1[C@H](O)CC(=O)[C@@H]1C/C=C\CCCC(=O)O` [Compound 69, 16,16-dimethyl Prostaglandin E2], for which the “Fold activity (1 uM)” value was “A (above 2.0 (high activity))”. With `CC/C=C\C[C@H](O)/C=C/[C@H]1[C@H](O)CC(=O)[C@@H]1C/C=C\CCCC(=O)O` [Compound 70, Prostaglandin E3], the “Fold activity (1 uM)” value is reported as “A (above 2.0 (high activity))”. In the case of `O=C(O)CCC/C=C\CC1C(=O)CC(O)C1/C=C/C(O)CC1CCCCC1` (stereo not shown) [Compound 71, 8-iso-16-cyclohexyl-tetranor Prostaglandin E2] it was “B (1.1~2.0 (moderate))”. As for `CCCCC[C@H](O)/C=C/[C@H]1C(=O)C[C@H](O)[C@@H]1C/C=C\CCCC(=O)NCCO` [Compound 72, Prostaglandin D2 Ethanolamide], the “Fold activity (1 uM)” value is given as “C (below 1.0 (low activity))”. The result for `CCCCC[C@H](O)/C=C/[C@H]1[C@H](O)CC(=O)[C@@H]1CCCCCCC(=O)O` [Compound 73, Prostaglandin E1] reads “A (above 2.0 (high activity))”.

For `CCCCCC(=O)CCC1C(O)CC(=O)C1CCCCCCC(=O)O` (stereo not shown) [Compound 74, 13,14-dihydro-15-keto Prostaglandin E1], the “Fold activity (1 uM)” value is given as “B (1.1~2.0 (moderate))”. Consider `CCCCC(C)(O)C/C=C/[C@H]1[C@H](O)CC(=O)[C@@H]1CCCCCCC(=O)OC` (stereo partly shown) [Compound 75, Misoprostol], for which the “Fold activity (1 uM)” value was “A (above 2.0 (high activity))”. The result for `CCCCC[C@H](O)/C=C/[C@H]1[C@H](O)CC(=O)[C@H]1C/C=C\CCCC(=O)OC(C)C` [Compound 76, 8-iso Prostaglandin E2 isopropyl ester] reads “A (above 2.0 (high activity))”.

Regarding `CCCCC(C)(C)[C@H](O)/C=C/[C@H]1[C@H](O)CC(=O)[C@@H]1C/C=C\CCCC(=O)Oc1ccc(NC(=O)c2ccc(NC(C)=O)cc2)cc1` [Compound 77, 16,16-dimethyl Prostaglandin E2 p-(p-acetamidobenzamido) phenyl ester], the “Fold activity (1 uM)” value was “A (above 2.0 (high activity))”. In the case of `CCCCCC(=O)CCC1C(=O)CC(O)C1CCCCCCC(=O)O` (stereo not shown) [Compound 79, 13,14-dihydro-15-keto Prostaglandin D1] it was “C (below 1.0 (low activity))”; in that of `CNC(=O)CCC/C=C\C[C@@H]1[C@@H](/C=C/[C@@H](O)CCc2ccccc2)[C@H](O)C[C@@H]1O` [Compound 80, 17-phenyl trinor PGF2a methyl amide], “C (below 1.0 (low activity))”. As for `CCCCC(C)(O)C/C=C/[C@H]1[C@@H](O)CC(=O)[C@@H]1CCCCCCC(=O)OC` (stereo partly drawn) [Compound 81, 11β-Misoprostol], the “Fold activity (1 uM)” value is recorded as “C (below 1.0 (low activity))”.

In the case of `CCCCCC(=O)/C=C/[C@H]1C(O)CC(=O)[C@H]1C/C=C\CCCC(=O)O` (stereo partly shown) [Compound 82, 8-iso-15-keto Prostaglandin E2], the “Fold activity (1 uM)” value is “B (1.1~2.0 (moderate))”. In the case of `C[C@@H](O)CCC[C@H](O)/C=C/[C@H]1[C@H](O)CC(=O)[C@@H]1CCCCCCC(=O)O` [Compound 83, 19(R)-hydroxy Prostaglandin E1] it was “B (1.1~2.0 (moderate))”; in that of `CCCCC(C)(C)[C@H](O)/C=C/[C@H]1[C@H](O)CC(=O)[C@@H]1CC(=O)CCCCC(=O)O` [Compound 84, 16,16-dimethyl-6-keto Prostaglandin E1], “B (1.1~2.0 (moderate))”; in that of `CCCCC[C@H](O)/C=C/[C@H]1[C@@H](O)CC(=O)[C@@H]1CCCCCCC(=O)O` [Compound 85, 11b-Prostaglandin E1], “C (below 1.0 (low activity))”. The result for `CCCCC[C@](C)(O)/C=C/[C@@H]1[C@@H](C/C=C\CCCC(=O)O)[C@@H](O)C[C@H]1O` [Compound 86, Carboprost] reads “C (below 1.0 (low activity))”. In the case of `CCCCC[C@@H](O)/C=C/[C@H]1[C@H](O)CC(=O)[C@@H]1CCCCCCC(=O)O` [Compound 87, 15(R)-PGE1], the “Fold activity (1 uM)” value is reported as “C (below 1.0 (low activity))”. Turning to `CCCCC[C@H](O)/C=C/[C@H]1[C@H](O)CC(=O)[C@@H]1CCCCCCC(=O)NCCO` [Compound 88, Alprostadil Ethanolamide], the “Fold activity (1 uM)” value was “B (1.1~2.0 (moderate))”.

Regarding `CCCCC[C@H](O)/C=C/[C@H]1[C@H](O)CC(=O)[C@@H]1CCCCCCCO` [Compound 89, 1,11a,15S-Trihydroxy-prost-13E-EN-9-ONE], the “Fold activity (1 uM)” value is “A (above 2.0 (high activity))”. In the case of `O=C(O)CCCCCCC1C(=O)NC(=O)N1CCC(O)C1CCCCC1` (stereo not shown) [Compound 90, BW245C] it was “A (above 2.0 (high activity))”; in that of `CC(C)OC(=O)CCC/C=C\C[C@@H]1[C@@H](CC[C@@H](O)CCc2ccccc2)[C@H](O)C[C@@H]1O` [Compound 91, Latanoprost], “B (1.1~2.0 (moderate))”.

These data come from patent publication US20210139435A1, “PROSTAGLANDIN ANALOGS AND USES THEREOF” (Lifex Biolabs, Inc., priority 2019, published 2021).
